Reference: patent US12344623B2, “Thiazolopyridine derivatives as adenosine receptor antagonists” (Merck Patent GmbH, priority 2019, dated 2025)

Tests used:
Assay type in all cases: cell-based
human A2A receptor [1] = molecular target: T1, human A2A receptor (Homo sapiens, UniProt P29274); assay: Human T cells, endogenous A2A receptor, cAMP, agonist NECA; conditions: read-out: hTcell data, cAMP, IC50
Protocol: The endogenous functional activity of the Gs-coupled human A2A receptor was measured in T cells, where this receptor is highly expressed. Determination of receptor activity was done by quantification of cAMP, which is a second messenger for adenosine receptors.
In short, human pan T cells were isolated from human PBMC (MACS Pan T Cell Isolation Kit, Miltenyi Biotec) that have been derived from fresh whole blood. The T cells were seeded in 384-well microtiter plates and treated with test compounds. […] Finally, HTRF reagents (cAMP Femto Kit, CisBio) were added to the wells, and after 1 h cellular cAMP levels were determined using the ENVISION (Perkin Elmer) plate reader.
The obtained raw data were normalized against the inhibitor control and the neutral control (DMSO) and the normalized data were fitted using Genedata Screener software.

human A1 receptor = molecular target: T2, human A1 receptor (Homo sapiens, UniProt P30542); assay: Functional A1 receptor activity, recombinant CHO cells, cAMP (HTRF), forskolin, agonist CPA; conditions: recombinant CHO cells, forskolin, agonist CPA; read-out: Functional A1 receptor activity, CHO, cAMP, IC50
T2 construct: expressed in transfected cells; host or cells: CHO
T2 sequence (P30542 1-326): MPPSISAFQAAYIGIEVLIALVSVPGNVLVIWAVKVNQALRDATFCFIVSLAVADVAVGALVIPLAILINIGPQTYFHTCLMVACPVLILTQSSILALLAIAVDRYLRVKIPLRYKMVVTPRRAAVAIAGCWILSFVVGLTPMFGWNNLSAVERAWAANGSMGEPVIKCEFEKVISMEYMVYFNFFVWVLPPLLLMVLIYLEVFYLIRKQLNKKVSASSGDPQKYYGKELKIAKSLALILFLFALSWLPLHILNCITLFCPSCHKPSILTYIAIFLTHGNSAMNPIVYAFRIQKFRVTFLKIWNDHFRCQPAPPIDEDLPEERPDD
Summary of the method: (§1)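 Normalized HTRF cAMP signals (inhibitor and DMSO controls as references) were curve-fitted; assays used forskolin-stimulated CHO cells with A1 or A3, agonist CPA or IB-MECA respectively, 30 min compound incubation.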

mouse Pan T cells = assay: mTcell assay, cAMP, agonist NECA; conditions: Mus musculus, T-cell
Source text: Adenosine (Ado) in tumor microenvironment can inhibit T cell activity by signaling through A2A receptors and suppress cytokine secretion by T cells. […] Potential A2A antagonists or A2A/A2B dual antagonists can rescue T cells from this inhibition. Herein, we describe the in vitro system we established using Pan T cells from mouse spleens to screen potential A2A antagonists or A2A/A2B dual antagonists for their activity. The method described involves the use of CD3/CD28 pre-coated beads to stimulate Pan T cells purified from mouse splenocytes, combined with the addition of A2A agonist along with potential A2A or A2A/A2B dual antagonists to evaluate potentiation of T cell cytokine production.
Pan T-cells are isolated from black 6 mice by manual dissociation and purified using a Miltenyi Pan T-cell isolation kit. The isolated T-cells are activated in 96 well plates for 48 hours using anti-CD3/CD28 beads in T-cell proliferation media.
After 48 hours, the T-cells are pooled, counted and suspended in serum free media containing 0.1% BSA. The cells are plated at 50,000 cells per well in 10 ul of media and incubated for 2 hours at 37° C. Test compounds are dispensed into the wells at a 10-point dose response, starting at a concentration of 10 uM. […] The plates are incubated for 30 minutes at 37° C. and assayed for cAMP levels using the Cisbio cAMP Dynamic2 reagent kit by adding 10 ul of the kit reagents to each well. The plates are incubated for 1 hour at room temperature and the HTRF signal is read on an Envision plate reader. The raw data is analyzed in Genedata Screener and the resulting data is loaded into the database.

human A2B receptor = molecular target: T3, human A2B receptor (Homo sapiens, UniProt P29275); assay: Functional A2B receptor activity, recombinant HEK293 cells, cAMP (HTRF), agonist NECA; conditions: read-out: Functional A2B receptor activity, HEK293, cAMP, IC50
T3 construct: expressed in transfected cells; host or cells: HEK293
T3 sequence (P29275 1-332): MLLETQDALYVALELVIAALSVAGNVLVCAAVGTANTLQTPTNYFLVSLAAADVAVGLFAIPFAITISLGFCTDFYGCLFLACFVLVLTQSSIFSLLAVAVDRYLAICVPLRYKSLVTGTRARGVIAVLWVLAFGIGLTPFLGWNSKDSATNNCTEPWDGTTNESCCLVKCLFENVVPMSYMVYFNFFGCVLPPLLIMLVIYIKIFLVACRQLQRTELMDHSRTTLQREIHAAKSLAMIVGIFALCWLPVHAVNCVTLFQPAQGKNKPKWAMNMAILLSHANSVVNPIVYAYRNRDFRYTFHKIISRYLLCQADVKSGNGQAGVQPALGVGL
Summary of the method: (§2)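 Intracellular cAMP, the adenosine receptor second messenger, is measured by HTRF following 30 min co-incubation with forskolin, agonist and test compound. Normalization uses DMSO as the neutral control and an inhibitor as the reference control. Fitted curves yield the values.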

human A2A receptor [2] = molecular target: T1, human A2A receptor; assay: Functional A2A receptor activity, recombinant HEK293 cells, cAMP (HTRF), agonist NECA; design: expressed in transfected cells; host or cells: HEK293; conditions: read-out: Functional A2A receptor activity, HEK293, cAMP, IC50
Summary of the method: as §2

human A3 receptor = molecular target: T4, human A3 receptor (Homo sapiens, UniProt P0DMS8); assay: Functional A3 receptor activity, recombinant CHO cells, cAMP (HTRF), forskolin, agonist IB-MECA; conditions: recombinant CHO cells, forskolin, agonist IB-MECA; read-out: Functional A3 receptor activity, CHO, cAMP, IC50
T4 construct: expressed in transfected cells; host or cells: CHO
T4 sequence (P0DMS8 1-318): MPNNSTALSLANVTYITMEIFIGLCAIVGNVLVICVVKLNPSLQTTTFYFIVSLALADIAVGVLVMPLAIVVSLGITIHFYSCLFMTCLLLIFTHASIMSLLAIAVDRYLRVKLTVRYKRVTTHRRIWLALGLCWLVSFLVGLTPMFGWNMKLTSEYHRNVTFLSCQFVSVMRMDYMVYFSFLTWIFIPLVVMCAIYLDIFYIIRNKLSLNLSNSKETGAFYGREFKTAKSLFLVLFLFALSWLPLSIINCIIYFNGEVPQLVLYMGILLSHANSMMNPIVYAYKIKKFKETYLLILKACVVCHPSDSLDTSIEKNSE
Summary of the method: as §1

T1 sequence (P29274 whole entry): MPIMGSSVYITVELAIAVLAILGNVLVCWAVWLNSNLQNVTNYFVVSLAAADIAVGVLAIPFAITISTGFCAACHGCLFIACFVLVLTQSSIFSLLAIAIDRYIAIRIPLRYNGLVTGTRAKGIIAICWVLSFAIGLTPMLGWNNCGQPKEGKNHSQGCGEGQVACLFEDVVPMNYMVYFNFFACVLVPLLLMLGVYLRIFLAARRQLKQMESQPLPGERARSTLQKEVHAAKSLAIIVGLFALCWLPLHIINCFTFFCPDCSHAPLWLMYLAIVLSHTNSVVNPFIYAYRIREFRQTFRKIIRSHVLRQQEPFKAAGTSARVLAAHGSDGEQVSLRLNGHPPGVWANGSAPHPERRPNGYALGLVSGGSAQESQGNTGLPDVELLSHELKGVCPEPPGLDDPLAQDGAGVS

SMILES | IC50 (human A2A receptor [1]) [nM] | IC50 (human A1 receptor) [nM] | IC50 (mouse Pan T cells) [nM] | IC50 (human A2B receptor) [nM] | IC50 (human A2A receptor [2]) [nM] | IC50 (human A3 receptor) [nM]
COc1ncc(-c2ccccc2)c2sc(NC(=O)N3CC[C@H](CN)C3)nc12 [Compound 1, (R)-3-Aminomethyl-pyrrolidine-1-carboxylic acid (4-methoxy-7-phenyl-thiazolo[4,5-c]pyridin-2-yl)-amide] | < 10 | > 1000 | < 100 | < 100 | < 10 | > 1000
COc1ncc(-c2ccccc2)c2sc(NC(=O)N3CC[C@@H](CN)C3)nc12 [Compound 3, (S)-3-Aminomethyl-pyrrolidine-1-carboxylic acid (4-methoxy-7-phenyl-thiazolo[4,5-c]pyridin-2-yl)-amide] | < 10 | < 1000 | < 10 | < 10 | < 10 | > 1000
COc1nc(F)c(N2CCOCC2)c2sc(NC(=O)N3CCC4(CCCOC4)C3)nc12 (stereo not drawn) [Compound 7, 7-Oxa-2-aza-spiro[4.5]decane-2-carboxylic acid (6-fluoro-4-methoxy-7-morpholin-4-yl-thiazolo[4,5-c]pyridin-2-yl)-amide] | < 10 | > 1000 | < 10 | < 10 | < 10 | > 1000
COc1nc(F)c(N2CCOCC2)c2sc(NC(=O)N3CC[C@]4(CCCOC4)C3)nc12 [Compound 10, (R)-7-Oxa-2-aza-spiro[4.5]decane-2-carboxylic acid (6-fluoro-4-methoxy-7-morpholin-4-yl-thiazolo[4,5-c]pyridin-2-yl)-amide] | < 10 | > 1000 | < 10 | < 100 | < 10 | > 1000
COc1nc(F)c(-c2ccccc2)c2sc(NC(=O)N3CC[C@@]4(CCCOC4)C3)nc12 [Compound 13, (5S)-N-{6-fluoro-4-methoxy-7-phenyl-[1,3]thiazolo[4,5-c]pyridin-2-yl}-7-oxa-2-azaspiro[4.5]decane-2-carboxamide] | < 10 | < 1000 | < 10 | < 10 | < 10 | > 1000
COc1nc(F)c(C2CCOCC2)c2sc(NC(=O)N3CCC4(CCCOC4)C3)nc12 (stereo not drawn) [Compound 31, 7-Oxa-2-aza-spiro[4.5]decane-2-carboxylic acid [6-fluoro-4-methoxy-7-(tetrahydro-pyran-4-yl)-thiazolo[4,5-c]pyridin-2-yl]-amide] | < 10 | > 1000 | < 10 | < 100 | < 10 | > 1000
COc1ncc(-c2ccco2)c2sc(NC(=O)N3CCC4(CCOCC4)C3)nc12 [Compound 48, 8-Oxa-2-aza-spiro[4.5]decane-2-carboxylic acid (7-furan-2-yl-4-methoxy-thiazolo[4,5-c]pyridin-2-yl)-amide] | < 100 | > 1000 | < 100 | < 10 | < 10 | > 1000
COc1nc(F)c(C2CCOCC2)c2sc(NC(=O)c3ccc(C(=O)N(C)CCO)cc3)nc12 [Compound 50, N-[6-Fluoro-4-methoxy-7-(tetrahydro-pyran-4-yl)-thiazolo[4,5-c]pyridin-2-yl]-N′-(2-hydroxy-ethyl)-N′-methyl-terephthalamide] | < 10 | > 1000 | < 100 | < 10 | < 10 | > 1000
COc1ncc(-c2ccoc2)c2sc(NC(=O)N3CCC4(CCOCC4)C3)nc12 [Compound 52, 8-Oxa-2-aza-spiro[4.5]decane-2-carboxylic acid (7-furan-3-yl-4-methoxy-thiazolo[4,5-c]pyridin-2-yl)-amide] |  | > 1000 | < 100 | < 10 | < 10 | > 1000
COc1ncc(C2=CCOCC2)c2sc(NC(=O)N3CCC4(CCNCC4)C3)nc12 [Compound 98, 2,8-Diaza-spiro[4.5]decane-2-carboxylic acid [7-(3,6-dihydro-2H-pyran-4-yl)-4-methoxy-thiazolo[4,5-c]pyridin-2-yl]-amide] | < 10 | > 1000 | < 100 | < 100 | < 10 | > 1000
COc1ncc(-c2cccc(Oc3cnn(C)c3)c2)c2sc(NC(=O)N3CCC4(CCOCC4)C3)nc12 [Compound 147, 8-Oxa-2-aza-spiro[4.5]decane-2-carboxylic acid {4-methoxy-7-[3-(1-methyl-1H-pyrazol-4-yloxy)-phenyl]-thiazolo[4,5-c]pyridin-2-yl}-amide] |  | > 1000 | < 10 | < 10 | < 10 | < 1000
COc1ncc([C@H]2COCCO2)c2sc(NC(=O)N3CCC4(CCOCC4)C3)nc12 [Compound 152, 8-Oxa-2-aza-spiro[4.5]decane-2-carboxylic acid ((S)-7-[1,4]dioxan-2-yl-4-methoxy-thiazolo[4,5-c]pyridin-2-yl)-amide] | < 10 |  | < 100 |  |  | 
COc1cnc(N2CCOCC2)c2sc(NC(=O)N3CCC4(CCN(C)C4=O)CC3)nc12 [drawing 205] |  |  | > 1000 |  |  | 
COc1ccc(-c2ccccc2)c2sc(NC(=O)NCCN3CCCCC3)nc12 [drawing 206] |  |  | > 1000 |  |  | 
COc1cnc(N2CCOCC2)c2sc(NC(=O)N3CCC(CO)CC3)nc12 [drawing 207] |  |  | < 1000 |  |  | 
COc1cnc(N2CCOCC2)c2sc(NC(=O)N3CCC4(CCCO4)CC3)nc12 [drawing 208] |  |  | > 1000 |  |  | 
COc1ccc(N2CCOCC2)c2sc(NC(=O)N3CCC4(CCCO4)CC3)nc12 [drawing 209] |  |  | < 1000 |  |  | 
COc1cnc(C2CCOCC2)c2sc(NC(=O)N3CCC(O)CC3)nc12 [drawing 210] |  |  | < 1000 |  |  | 
COc1ccc(N2CCOCC2)c2sc(NC(=O)N3CCCCC3)nc12 [drawing 211] |  |  | < 1000 |  |  | 
COc1cnc(N2CCOCC2)c2sc(NC(=O)N3CCCCC3)nc12 [drawing 212] |  |  | < 1000 |  |  | 
COc1cnc(N2CCOCC2)c2sc(NC(=O)N3CCOCC3)nc12 [drawing 213] |  |  | > 1000 |  |  | 
